Paper PMC8779173, “Discovery of Cofactor Competitive Inhibitors against the Human Methyltransferase Fibrillarin” (Pharmaceuticals, 2021)

Tests used:
human fibrillarin (hFBL) [1] = molecular target: T1, human fibrillarin (hFBL) (Homo sapiens, UniProt P22087); test: biochemical; set-up: SPR binding affinity of compounds to human fibrillarin methyltransferase domain; conditions: SPR
T1 construct: gene FBL; methyltransferase domain (residues 83–321)
T1 sequence (P22087 83-321): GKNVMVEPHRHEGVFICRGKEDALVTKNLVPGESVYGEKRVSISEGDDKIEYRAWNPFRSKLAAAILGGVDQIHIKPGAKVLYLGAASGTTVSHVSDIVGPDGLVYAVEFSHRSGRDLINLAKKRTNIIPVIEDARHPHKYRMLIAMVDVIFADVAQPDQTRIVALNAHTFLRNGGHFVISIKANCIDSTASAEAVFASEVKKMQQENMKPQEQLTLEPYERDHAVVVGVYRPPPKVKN
From the text: In addition, electron density for 1a was not observed beyond the amide linker, which appeared to be turning away from the catalytic site and pointing towards the bulk solvent. […] Indeed, the binding affinity of 1a turned out to be similar to that of 1 (Supplemental Table S3). […] Additionally, the extended piperidine ring in 2a was engaged in multiple hydrophobic interactions with residues G167, D236, and V237 with a stable chair conformation.

human fibrillarin (hFBL) [2] = molecular target: T1, human fibrillarin (hFBL); test: crystal structure (soak; no density beyond the amide linker); STD NMR competition with SAM; SPR; format: binding
human fibrillarin (hFBL) [3] = molecular target: T1, human fibrillarin (hFBL); test: STD NMR competition with SAM; format: binding
human fibrillarin (hFBL) [4] = molecular target: T1, human fibrillarin (hFBL); test: crystal structure (soak); STD NMR competition with SAM; SPR; format: binding
human fibrillarin (hFBL) [5] = molecular target: T1, human fibrillarin (hFBL); test: ITC; also SPR (Kd […]), STD NMR and crystal structure; format: binding

Row | Compound | Kd (human fibrillarin (hFBL) [1]) | STD NMR competition with SAM (human fibrillarin (hFBL) [3]) | other results
1 | N[C@H](Cc1cccc(NC(=O)Cc2cn3nc(C(F)(F)F)cc3c(=O)[nH]2)c1)C(=O)O [1a, (R)-2-Amino-3-(3-(2-(4-oxo-2-(trifluoromethyl)-4,5-dihydropyrazolo[1,5-a]pyrazin-6-yl)acetamido)phenyl)propanoic acid] | 510 ± 50 µM |  | crystal structure (soak; no density beyond the amide linker); STD NMR competitio (human fibrillarin (hFBL) [2]): complex structures were obtained for 1a (PDB code: 7SEC) and 2a (PDB code: 7SED)
2 | N[C@@H](Cc1cccc(NC(=O)Cc2cn3nc(C(F)(F)F)cc3c(=O)[nH]2)c1)C(=O)O [1c, (S)-2-Amino-3-(3-(2-(4-oxo-2-(trifluoromethyl)-4,5-dihydropyrazolo[1,5-a]pyrazin-6-yl)acetamido)phenyl)propanoic acid] | 2660 ± 40 µM | without the amino acid 1e were also shown to compete with SAM binding to hFBL in solution by STD NMR | 
3 | N[C@@H](CCCNC(=O)Cc1cn2nc(C(F)(F)F)cc2c(=O)[nH]1)C(=O)O [1d, (S)-2-Amino-5-(2-(4-oxo-2-(trifluoromethyl)-4,5-dihydropyrazolo[1,5-a]pyrazin-6-yl)acetamido)pentanoic acid] | 3350 ± 480 µM | In addition to 1a, 1c, 1d, and a synthetic intermediate without the amino acid 1e were also shown to compete | 
4 | O=C(O)Cc1cn2nc(C(F)(F)F)cc2c(=O)[nH]1 [1e, 2-(4-Oxo-2-(trifluoromethyl)-4,5-dihydropyrazolo[1,5-a]pyrazin-6-yl)acetic acid] |  | a synthetic intermediate without the amino acid 1e were also shown to compete with SAM binding to hFBL | 
5 | FC(F)(F)c1cc(NC2CCNCC2)ncn1 [2a] | 43.8 ± 2.2 µM |  | crystal structure (soak); STD NMR competition with SAM; SPR (human fibrillarin (hFBL) [4]): complex structures were obtained for 1a (PDB code: 7SEC) and 2a (PDB code: 7SED)
6 | FC(F)(F)c1cc(NC2CCOCC2)ncn1 [2b] | 250 ± 20 µM | both 2a and 2b were shown to compete with cofactor binding by STD NMR assays | 
7 | C[S@@+](CC[C@H](N)C(=O)[O-])C[C@H]1O[C@@H](n2cnc3c(N)ncnc32)[C@H](O)[C@@H]1O [SAM] | 33.7 ± 7.7 µM |  | Kd (human fibrillarin (hFBL) [5]): 14 ± 0.8 µM
8 | Cc1cn2cc(C(F)(F)F)cc2c(=O)[nH]1 [compound 1, PS-6655] | 520 ± 40 µM |  | 
9 | Nc1cc(C(F)(F)F)ncn1 [compound 2, FS-2818] | 2700 ± 780 µM |  | 
